Experimental data: paper PMC9645390, “Amphiphilic stilbene derivatives attenuate the neurotoxicity of soluble Aβ42 oligomers by controlling their interactions with cell membranes” (Chemical Science, 2022)
Blank lines part the entries; values can stand above or below the molecule they belong to.

Assays:
Aβ oligomers = conditions: read-out: Kd, oligomer-selective probe; cited from earlier work
[1] = Alamar Blue cytotoxicity assay in N2a cells; type: cell-based, mouse; conditions: mouse, N2a (Neuro2A) neuroblastoma cells, 40 h, read-out: cell viability
Method: (§1) After confirming these amphiphilic compounds can bind to Aβ species both in vitro and ex vivo, we next investigated whether these compounds could attenuate the toxicity of the Cu–Aβ species, as the Cu^2+ ions were reported to promote the formation of neurotoxic soluble Aβ42 oligomers.[45,46] Firstly, the Alamar Blue cell viability assay was used to measure the cytotoxicity of the compounds at different concentrations ranging from 20 μM to 2 μM in mouse neuroblastoma N2a cells (Fig. 8). […] Considering its high binding affinity to both Aβ fibrils and oligomers, we also further tested its ability to alleviate Cu^2+–Aβ42-induced toxicity. […] The underlying mechanism is unclear, but we propose that these compounds might perform similarly to the toxic oligomers that bind to some cell membrane receptors or insert into the membrane lipids to form porous channels.
(§2) Alamar Blue assay was chosen for the cytotoxicity studies.3 Mouse neuroblastoma Neuro2A (N2A) cells were grown with DMEM/10% FBS in a petri dish at 37 °C in a humidified atmosphere with 5% CO2. Then N2A cells were seeded in a 96-well plate (1.0 × 10^4/well). After 24 h incubation, cell media was changed to DMEM/N-2, and N2A cells were incubated for another 1 h. Then the cells were treated with different concentrations of compounds for 40 h, Alamar Blue solution (10 μL) was added, and the cells were incubated for another 90 min at 37 °C. The fluorescence intensity of each well was measured at 590 nm (excitation wavelength = 560 nm).
(§3) For the Cu2+-Aβ-induced toxicity studies, cells were treated monomeric Aβ42, Cu2+, monomeric Aβ42 + Cu2+, and monomeric Aβ42 + Cu2+ + compounds, monomeric Aβ42 + Cu2+ + copper chelators (Me2HTACN or Me3TACN), respectively. After 40 h incubation, Alamar Blue solution (10 μL) was added, and the cells were incubated for another 90 min at 37 °C. The fluorescence intensity of each well was measured at 590 nm (excitation wavelength = 560 nm). […]

[2] = test system: mouse neuroblastoma N2a cells; test: Alamar Blue cytotoxicity assay in N2a cells; type: cell-based; conditions: 2 to 20 μM
Method: as §1, §2, §3

[3] = target: T1, Aβ plaques in 5xFAD mice brain sections (Homo sapiens, UniProt P05067); test: Fluorescence imaging of 5xFAD mouse brain sections, colocalization with Congo Red; conditions: 9-month-old 5xFAD brain sections; compound 5 μM, Congo red 2.5 μM
T1 construct: aggregated Aβ species were commonly observed in brain sections from 5xFAD transgenic mice; tissue Jackson Laboratories; host or cells: brain sections of 9-month-old 5xFAD transgenic mice
Method: (§4) In order to confirm that the compounds can also bind to native Aβ species, brain sections collected from 9-month-old 5xFAD transgenic mice have been employed in the fluorescence imaging studies. […] The brain sections were first incubated with our compounds, followed by Congo Red (CR), which is a well-established fluorescent probe that can bind to Aβ plaques.[34] The treated brain sections were then imaged using fluorescence microscope. […] Immunostaining with the CF594-conjugated HJ 3.4 antibody (CF594-HJ3.4) was also performed to confirm that these six compounds can bind to Aβ species specifically in the brain sections (Fig. 5). Moreover, the log D values of the compounds were also measured by octanol-PBS partition assays.[35]
Fig. 4 Fluorescence microscopy images of 5xFAD mice brain sections co-incubated with amphiphilic compounds (top), Congo red (middle) and merged images (bottom, along with the Parson's correlation coefficients R). Concentrations: [amphiphilic compounds] = 5 μM, [Congo red] = 2.5 μM; scale bar: 125 μm. TEXT PRINTED IN THE PICTURE: ZY-5-MT: Merged R= 0.84 | ZY-12-DT: Merged R= 0.52 | ZY-12-OMe: Merged R= 0.77 | ZY-15-OMe: Merged R= 0.77 | ZY-17-DT: Merged R= 0.77 | ZY-17-OMe: Merged R= 0.72 […]
Histological Staining of 5×FAD Mice Brain Sections
5xFAD transgenic mice brain sections were blocked with bovine serum albumin (2% BSA in PBS, pH 7.4, 10 min). Then the mice brain sections were transferred to a PBS solution of the compound and incubated for 1 h. After which, the brain sections were transferred to a PBS solution of Congo Red or antibody HJ 3.4 (Professor David Holtzman, 1 μg/ml) and incubated for another 1 h. Then, the brain sections were treated with BSA again (5 min) followed by washing with PBS (3 × 2 min), DI water (3 × 2 min). Finally, the mice brain sections were mounted with non-fluorescent mounting media, and the images were obtained by using EVOS FL Auto 2. ImageJ Fiji program was used for colocalization analysis and determination of the Pearson’s correlation coefficient. The primary

[4] = Log D by octanol-PBS partition assay; type: physicochemical; conditions: pH 7.4, fluorescence readout
Method: as §4, with “assays.[35] […]” for “assays.[35]”
The Log D value was measured following a published procedure using slight modifications.4 In general, compounds in 0.5 mL octanol was subjected to partition with 0.5 mL octanol-saturated
PBS. The whole mixture was stirred vigorously for 5 min, and centrifuged at 2,000 rpm for 5 min.
The top octanol layer was separated for later fluorescence measurement. The remaining PBS layer was partitioned with 0.5 mL PBS-saturated octanol, and the second top octanol layer was then separated after vigorous stirring and centrifuging at 2,000 rpm for another 5 min. The two octanol layers’ fluorescence spectra were recorded. The log D value was calculated by the fluorescence intensity ratio at the compounds’ emission wavelength for the above two octanol extractions. […]

Aβ42 oligomers = target: T2, Aβ42 oligomers (Homo sapiens, UniProt P05067); test: Fluorescence saturation binding assay with Aβ42 oligomers
T2 construct: 1 mg of commercial Aβ42 monomer powder (from GL biochem) was dissolved in 1; purchased GL biochem
Method: (§5) Fig. 3 Binding constant measurements of ZY-5-OMe (left), ZY-5-MT (middle), ZY-5-DT (right) with Aβ42 fibrils (top), and oligomers (bottom). The measurements were performed in 10 mM phosphate buffered saline (PBS), pH 7.4. The Kd curves were fitted in GraphPad Prism with one site-specific binding model. Equation: Y = Bmax × X/(Kd + X). [Aβ42 fibrils] = [Aβ42 oligomers] = 5 μM.
(§6) Preparation of the Aβ42 Fibrils and Aβ42 Oligomers
(§7) Aβ42 fibrils: 1 mg of commercial Aβ42 monomer powder (from GL biochem) was dissolved in 1
(§8) mL 1,1,1,3,3,3-hexafluoro-2-propanol (HFIP) at room temperature and incubated for 1h. The
(§9) resulting solution was divided equally into two Eppendorf tubes. The solution in each Eppendorf
(§10) tube containing 0.5 mg Aβ42 monomer was then evaporated overnight and dried by vacuum
(§11) centrifuge to generate monomeric films. 100 μM Aβ42 fibrils solution was prepared by dissolving
(§12) the 0.5 mg monomeric films in 1.1 mL PBS buffer (with final DMSO concentration less than 1%)
(§13) and stiring at 37 °C for 3 days.
(§14) Aβ42 oligomers: The 0.5 mg monomeric films were dissolved in 1.1 mL PBS buffer (with final
(§15) DMSO concentration less than 1%) and incubated at 4 °C overnight. The resulting solution was
(§16) then centrifuged at 3000 rpm for 15 mins to remove the insoluble aggregates. The clear supernatant
(§17) was then used for the following experiments. […]
(§18) In Vitro Saturation Binding Studies with Aβ42 Fibrils and Aβ42 Oligomers
(§19) To a solution of increasing concentrations of compounds, a fixed concentration of the generated
(§20) aggregated Aβ42 fibrils or Aβ42 oligomers solutions (5 to 15 μM) was added to yield a total volume
(§21) of 100 μL. Nonspecific binding was determined without compounds. The mixture was incubated
(§22) for 15 min at room temperature. All fluorescence data were obtained on a SpectraMax M2e plate
(§23) reader (Molecular Devices).

Aβ42 fibrils = target: T3, Aβ42 fibrils (Homo sapiens, UniProt P05067); test: Fluorescence saturation binding assay with Aβ42 fibrils; conditions: Aβ42 fibrils
T3 construct: 1 mg of commercial Aβ42 monomer powder (from GL biochem) was dissolved in 1; purchased GL biochem
Method: as §5, §6, §7, §8, §9, §10, §11, §12, §13, §14, §15, §16, §17, §18, §19, §20, §21, §22, §23

T2 sequence (P05067 672-713 limits assumed): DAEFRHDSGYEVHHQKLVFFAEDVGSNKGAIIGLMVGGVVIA
T3 sequence (P05067 672-713 limits assumed): as above
T1 sequence (P05067 672-713 limits assumed): as above

SMILES: CCOc1cccc(C=Cc2cc(C)c3n2[B-](F)(F)[N+]2=C(CCC(=O)OCC(Cl)(Cl)Cl)C=CC2=C3)c1O [BD-Oligo]
Kd (Aβ oligomers): 480 nM

SMILES: COCCOCCn1c2ccc(F)cc2c2cc(/C=C/c3cc[n+](CCO)c4ccccc34)ccc21 [F-SLOH]
Kd (Aβ oligomers): 660 nM

SMILES: CCN(CC)c1ccc(/C=C/C2=[O+][B-](F)(F)OC(/C=C/c3ccc(N(CC)CC)nc3)=C2CCCOc2c(C)cccc2C)cn1 [CRANAD-102]
Kd (Aβ oligomers): 7.5 ± 10 nM

Pearson's correlation coefficient R, colocalization with Congo Red [3]: 0.77
logD [4]: 1.17 ± 0.026
Kd (Aβ42 oligomers; Aβ42 oligomers, 10 mM PBS pH 7.4, one site-specific binding model): 320 nM
binding ratio, Oligomers (Aβ42 oligomers; Aβ42 oligomers, from cross point between plateau and initial slope): 10.2
Kd (Aβ42 fibrils; 10 mM PBS pH 7.4, one site-specific binding model, read-out: Kd, Fibrils): 390 nM
binding ratio, Fibrils (Aβ42 fibrils; from cross point between plateau and initial slope): 8.5
SMILES: COc1cc(-c2ccc(/C=C/c3ccc(N(C)C)cc3)s2)cc(CN2CCN(C)CCN(C)CC2)c1O [ZY-12-OMe]
viability at 40 h, 5 µM ([1]; at 5 μM): > 75%
viability at 40 h, 10 µM ([1]; at 10 μM): < 50%
cytotoxicity (in words) [2]: higher cytotoxicity than others
binding preference oligomers vs fibrils (from Kd values) (Aβ42 oligomers; lower Kd for Aβ oligomers than Aβ fibrils): higher binding affinity to oligomers over fibrils
